Experiment: Pharmacokinetics of GHB in plasma after oral gavage of GHB delivering compounds; relative oral bioavailability vs sodium oxybate
Settings: vehicle water
[1] = dose equivalent to 80 mg/kg NaGHB
[2] = molar equivalent of 100 mg/kg NaGHB

| Structure (SMILES) | % AUC0-4 hr vs study comparator (sodium oxybate) [1] [%] | % Cmax vs study comparator (sodium oxybate) [1] [%] | % AUC0-4 hr vs study comparator (sodium oxybate) [2] [%] | % Cmax vs study comparator (sodium oxybate) [2] [%] |
| --- | --- | --- | --- | --- |
| CCOC(=O)OCCCC(=O)O [O-(ethoxycarbonyl)-GHB, O-(Ethoxycarbonyl)-GHB] | 54 | 51 | – | – |
| O=C1CCCO1 [GBL] | – | – | 27 | 70 |

Source: patent US20230382851A1, “GAMMA-HYDRO[…] AND PROCESSES FOR MAKING AND USING THEM” (Zevra Therapeutics, Inc., priority 2022, published 2023)
